Patent US9474758B2, “Thienopyrimidinedione derivatives as TRPA1 modulators” (Glenmark Pharmaceuticals S.A., priority 2009, dated 2016)
pIC50: −log10 of the molar value.

Assays:
[1] = molecular target: T1, Human TRPA1 expressing CHO cells (Homo sapiens, UniProt O75762); assay: 45Calcium uptake assay, inhibition of AITC induced calcium uptake (human); type: cell-based; conditions: human TRPA1 CHO cells, AITC 30 μM; for inhibition at 1 µM: compound 1.0 μM, read-out: Percentage inhibition at 1.0 μM; for inhibition at 10 µM: compound 10.0 μM, read-out: Percentage inhibition at 10.0 μM; for pIC50: read-out: Human IC50 value (Range)
T1 construct: expressed in transfected cells; host or cells: CHO cells (G-418 selection)
T1 sequence (O75762 whole entry): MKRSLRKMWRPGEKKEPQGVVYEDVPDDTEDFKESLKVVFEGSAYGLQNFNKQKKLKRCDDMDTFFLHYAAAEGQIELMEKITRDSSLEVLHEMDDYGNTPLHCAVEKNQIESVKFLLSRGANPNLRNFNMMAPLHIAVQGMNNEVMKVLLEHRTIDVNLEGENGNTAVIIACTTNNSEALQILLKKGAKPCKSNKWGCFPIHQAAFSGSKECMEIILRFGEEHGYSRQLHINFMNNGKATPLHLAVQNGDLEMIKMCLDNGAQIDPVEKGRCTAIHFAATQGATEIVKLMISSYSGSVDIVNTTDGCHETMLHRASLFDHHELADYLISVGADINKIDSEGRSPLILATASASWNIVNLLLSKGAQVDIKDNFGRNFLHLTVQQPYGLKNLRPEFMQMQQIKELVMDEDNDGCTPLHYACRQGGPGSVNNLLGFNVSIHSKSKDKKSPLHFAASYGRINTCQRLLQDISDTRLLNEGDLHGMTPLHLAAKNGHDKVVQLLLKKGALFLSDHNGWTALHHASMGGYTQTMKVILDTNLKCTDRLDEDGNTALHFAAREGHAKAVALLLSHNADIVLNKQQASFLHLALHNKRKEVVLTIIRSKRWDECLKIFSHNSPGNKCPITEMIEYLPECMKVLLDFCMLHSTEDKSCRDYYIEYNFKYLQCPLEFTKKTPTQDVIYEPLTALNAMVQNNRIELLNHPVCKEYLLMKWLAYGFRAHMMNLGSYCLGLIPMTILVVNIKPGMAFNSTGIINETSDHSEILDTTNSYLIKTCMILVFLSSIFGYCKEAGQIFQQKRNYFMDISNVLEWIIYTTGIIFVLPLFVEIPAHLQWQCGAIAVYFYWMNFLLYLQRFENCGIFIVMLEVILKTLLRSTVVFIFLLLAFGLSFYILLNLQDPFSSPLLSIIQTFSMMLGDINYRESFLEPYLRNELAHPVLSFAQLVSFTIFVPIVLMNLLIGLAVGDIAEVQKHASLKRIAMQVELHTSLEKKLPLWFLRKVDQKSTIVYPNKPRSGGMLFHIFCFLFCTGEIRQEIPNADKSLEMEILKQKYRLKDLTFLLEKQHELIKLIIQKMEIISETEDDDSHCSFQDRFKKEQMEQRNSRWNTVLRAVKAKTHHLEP
Experimental: (§1) Screening for TRPA1 Antagonist Using the ^45Calcium Uptake Assay:
(§2) The inhibition of TRPA1 receptor activation was measured as inhibition of allyl isothiocyanate (AITC) induced cellular uptake of radioactive calcium.
(§3) Test compounds were dissolved in 100% DMSO to prepare 10 mM stock and then diluted using plain medium with 0.1% BSA and 1.8 mM CaCl2 to get the desired concentration. The final concentration of DMSO in the reaction was 0.5% (v/v). […] Rat TRPA1 expressing CHO cells were grown in F-12 DMEM medium with 10% FBS, 1% penicillin-streptomycin solution, and 400 μg/ml of Zeocin. […] Cells were treated with the test compounds for 10 minutes followed by the addition of AITC at a final concentration of 30 μM (for human TRPA1) and/or 10 μM (for rat TRPA1) and 5 μCi/ml ^45Ca^+2 for 3 minutes. Cells were washed and lysed using a buffer containing 1% Triton X-100, 0.1% deoxycholate and 0.1% SDS. Radioactivity in the lysate was measured in a Packard TopCount after addition of liquid scintillant.
(§4) Concentration response curves were plotted as a % of maximal response obtained in the absence of test antagonist. IC50 values can be calculated from concentration response curve by nonlinear regression analysis using GraphPad PRISM software.

[2] = molecular target: T2, Rat TRPA1 expressing CHO cells (Rattus norvegicus, UniProt Q6RI86); assay: 45Calcium uptake assay, inhibition of AITC induced calcium uptake (rat); type: cell-based; conditions: rat TRPA1 CHO cells, AITC 10 μM; for inhibition at 1 µM: compound 1.0 μM, read-out: Percentage inhibition at 1.0 μM; for inhibition at 10 µM: compound 10.0 μM, read-out: Percentage inhibition at 10.0 μM; for pIC50: read-out: Rat IC50 value (Range)
T2 construct: expressed in transfected cells; host or cells: CHO cells (Zeocin selection)
T2 sequence (Q6RI86 whole entry): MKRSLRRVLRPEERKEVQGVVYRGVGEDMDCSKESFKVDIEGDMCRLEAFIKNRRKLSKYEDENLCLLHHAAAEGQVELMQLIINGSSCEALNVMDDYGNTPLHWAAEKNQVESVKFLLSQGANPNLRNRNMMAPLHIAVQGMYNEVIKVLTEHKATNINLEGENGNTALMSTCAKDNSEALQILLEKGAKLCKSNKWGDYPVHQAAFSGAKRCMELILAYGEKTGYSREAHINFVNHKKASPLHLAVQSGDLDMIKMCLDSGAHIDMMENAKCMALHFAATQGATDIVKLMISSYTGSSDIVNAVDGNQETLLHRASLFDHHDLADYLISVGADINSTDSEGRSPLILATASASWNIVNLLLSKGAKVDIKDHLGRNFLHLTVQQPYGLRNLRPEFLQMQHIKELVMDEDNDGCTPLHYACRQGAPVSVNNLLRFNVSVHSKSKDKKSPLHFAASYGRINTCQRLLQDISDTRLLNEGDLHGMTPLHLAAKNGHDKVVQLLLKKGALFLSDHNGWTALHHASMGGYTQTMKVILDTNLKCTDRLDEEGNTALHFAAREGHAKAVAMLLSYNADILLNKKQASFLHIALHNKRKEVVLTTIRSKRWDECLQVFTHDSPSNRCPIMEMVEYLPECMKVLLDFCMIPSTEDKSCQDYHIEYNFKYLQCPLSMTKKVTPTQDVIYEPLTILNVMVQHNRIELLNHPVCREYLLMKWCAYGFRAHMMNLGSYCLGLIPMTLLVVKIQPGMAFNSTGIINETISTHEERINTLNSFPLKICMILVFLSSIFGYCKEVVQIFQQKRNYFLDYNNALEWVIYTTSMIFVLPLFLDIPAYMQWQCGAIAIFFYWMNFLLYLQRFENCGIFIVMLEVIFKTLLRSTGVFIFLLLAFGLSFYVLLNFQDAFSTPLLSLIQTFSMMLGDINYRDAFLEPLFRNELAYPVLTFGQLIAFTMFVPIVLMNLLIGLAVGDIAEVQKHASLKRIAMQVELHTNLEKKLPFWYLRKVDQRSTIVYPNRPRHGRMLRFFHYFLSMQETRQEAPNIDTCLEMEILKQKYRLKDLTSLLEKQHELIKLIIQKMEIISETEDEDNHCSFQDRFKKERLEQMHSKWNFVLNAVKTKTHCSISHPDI
Experimental: as §1, §2, §3, §4

Row | Structure (SMILES) | inhibition at 1 µM [1] [%] | inhibition at 10 µM [1] [%] | pIC50 [1] | inhibition at 1 µM [2] [%] | inhibition at 10 µM [2] [%] | pIC50 [2]
1 | Cn1c(=O)c2c(CC(=O)Nc3nc(-c4cccc(OC(F)(F)F)c4)cs3)csc2n(C)c1=O [Example 3, 2-(1,3-Dimethyl-2,4-dioxo-1,2,3,4-tetrahydrothieno[2,3-d]pyrimidin-5-yl)-N-{4-[3-(trifluoromethoxy)phenyl]-1,3-thiazol-2-yl}acetamide] | 89 | 98.5 | 6.30 to 7.30 | 82.4 | 99.7 | –
2 | Cc1sc2c(c1CC(=O)Nc1nc(-c3ccc(F)c(C(F)(F)F)c3F)cs1)c(=O)n(C)c(=O)n2C [Example 27, N-{4-[2,4-Difluoro-3-(trifluoromethyl)phenyl]-1,3-thiazol-2-yl}-2-(1,3,6-trimethyl-2,4-dioxo-1,2,3,4-tetrahydrothieno[2,3-d]pyrimidin-5-yl)acetamide] | 93.2 | 99.1 | > 7.30 | 97.9 | 98 | 6.30 to 7.30
3 | Cc1sc2c(c1CC(=O)Nc1nc(-c3ccc(F)c(OC(F)(F)F)c3)cs1)c(=O)n(C)c(=O)n2C [Example 25, N-{4-[4-Fluoro-3-(trifluoromethoxy)phenyl]-1,3-thiazol-2-yl}-2-(1,3,6-trimethyl-2,4-dioxo-1,2,3,4-tetrahydrothieno[2,3-d]pyrimidin-5-yl)acetamide] | 98.5 | 98.8 | > 7.30 | 99.2 | 99.3 | 6.30 to 7.30
4 | Cc1sc2c(c1CC(=O)Nc1nc(-c3ccc(Cl)c(Cl)c3)cs1)c(=O)n(C)c(=O)n2C [Example 20, N-[4-(3,4-Dichlorophenyl)-1,3-thiazol-2-yl]-2-(1,3,6-trimethyl-2,4-dioxo-1,2,3,4-tetrahydrothieno[2,3-d]pyrimidin-5-yl)acetamide] | 99 | 99.6 | > 7.30 | 83.4 | 91.2 | 6.30 to 7.30
5 | Cc1sc2c(c1CC(=O)Nc1nc(-c3ccc(OC(F)(F)F)c(F)c3)cs1)c(=O)n(C)c(=O)n2C [Example 26, N-{4-[3-Fluoro-4-(trifluoromethoxy)phenyl]-1,3-thiazol-2-yl}-2-(1,3,6-trimethyl-2,4-dioxo-1,2,3,4-tetrahydrothieno[2,3-d]pyrimidin-5-yl)acetamide] | 100 | 100 | > 7.30 | 98.2 | 98.1 | 6.30 to 7.30
6 | Cn1c(=O)c2c(CC(=O)Nc3nc(-c4ccc(F)c(C(F)(F)F)c4)cs3)csc2n(C)c1=O [Example 6, 2-(1,3-Dimethyl-2,4-dioxo-1,2,3,4-tetrahydrothieno[2,3-d]pyrimidin-5-yl)-N-{4-[4-fluoro-3-(trifluoromethyl)phenyl]-1,3-thiazol-2-yl}acetamide] | 100 | 100 | > 7.30 | 99.7 | 99.9 | 6.30 to 7.30
7 | CCc1sc2c(c1CC(=O)Nc1nc(-c3ccc(F)c(C(F)(F)F)c3F)cs1)c(=O)n(C)c(=O)n2C [Example 32] | 99.2 | 99.3 | > 7.30 | 99.9 | 98.8 | > 7.30
8 | Cn1c(=O)c2c(CC(=O)Nc3nc(-c4ccc(C(F)(F)F)cc4)cs3)scc2n(C)c1=O [Example 47] | 97.9 | 98.8 | > 7.30 | 88.9 | 99.6 | –
9 | Cn1c(=O)c2c(CC(=O)Nc3nc(-c4ccc(Cl)cc4)cs3)csc2n(C)c1=O [Example 2, N-[4-(4-Chlorophenyl)-1,3-thiazol-2-yl]-2-(1,3-dimethyl-2,4-dioxo-1,2,3,4-tetrahydrothieno[2,3-d]pyrimidin-5-yl)acetamide] | 99 | 98.8 | 6.30 to 7.30 | 91.4 | 99.3 | –
10 | Cn1c(=O)c2c(CC(=O)Nc3nc(-c4ccc(Cl)c(Cl)c4)cs3)csc2n(C)c1=O [Example 12, N-[4-(3,4-Dichlorophenyl)-1,3-thiazol-2-yl]-2-(1,3-dimethyl-2,4-dioxo-1,2,3,4-tetrahydrothieno[2,3-d]pyrimidin-5-yl)acetamide] | 99.7 | 99.8 | > 7.30 | 97.8 | 100 | 6.30 to 7.30
11 | Cn1c(=O)c2c(CC(=O)Nc3nc(-c4ccc(F)c(C(F)(F)F)c4F)cs3)scc2n(C)c1=O [Example 57, N-{4-[2,4-Difluoro-3-(trifluoromethyl)phenyl]-1,3-thiazol-2-yl}-2-(1,3-dimethyl-2,4-dioxo-1,2,3,4-tetrahydrothieno[3,4-d]pyrimidin-5-yl)acetamide] | 96.9 | 91 | > 7.30 | 97 | 100 | > 7.30
12 | Cn1c(=O)c2c(CC(=O)Nc3nc(-c4ccc(F)c(OC(F)(F)F)c4)cs3)scc2n(C)c1=O [Example 55, 2-(1,3-Dimethyl-2,4-dioxo-1,2,3,4-tetrahydrothieno[3,4-d]pyrimidin-5-yl)-N-{4-[4-fluoro-3-(trifluoromethoxy)phenyl]-1,3-thiazol-2-yl}acetamide] | 99.6 | 99.8 | > 7.30 | 70.4 | 99.9 | –
13 | Cc1sc2c(c1CC(=O)Nc1nc(-c3ccc(C(C)(C)C)cc3)cs1)c(=O)n(C)c(=O)n2C [Example 17, N-[4-(4-tert-Butylphenyl)-1,3-thiazol-2-yl]-2-(1,3,6-trimethyl-2,4-dioxo-1,2,3,4-tetrahydrothieno[2,3-d]pyrimidin-5-yl)acetamide] | 97.5 | 98.8 | 6.30 to 7.30 | 93.1 | 99.2 | 6.30 to 7.30
14 | Cn1c(=O)c2c(CC(=O)Nc3nc(-c4cc(F)c(OCC(F)(F)F)c(F)c4)cs3)scc2n(C)c1=O [Example 60, N-{4-[3,5-Difluoro-4-(2,2,2-trifluoro-ethoxy)phenyl]-1,3-thiazol-2-yl}-2-(1,3-dimethyl-2,4-dioxo-1,2,3,4-tetrahydrothieno[3,4-d]pyrimidin-5-yl)acetamide] | 98 | 97.4 | > 7.30 | 21 | 95.9 | –
15 | Cn1c(=O)c2c(CC(=O)Nc3nc(-c4cccc(OC(F)(F)F)c4)cs3)scc2n(C)c1=O [Example 48, 2-(1,3-Dimethyl-2,4-dioxo-1,2,3,4-tetrahydrothieno[3,4-d]pyrimidin-5-yl)-N-{4-[3-(trifluoromethoxy)phenyl]-1,3-thiazol-2-yl}acetamide] | 95.5 | 98.9 | 6.30 to 7.30 | 92.5 | 100 | –
16 | Cc1sc2c(c1CC(=O)Nc1nc(-c3cccc(OC(F)(F)F)c3)cs1)c(=O)n(C)c(=O)n2C [Example 18, N-{4-[3-(Trifluoromethoxy)phenyl]-1,3-thiazol-2-yl}-2-(1,3,6-trimethyl-2,4-dioxo-1,2,3,4-tetrahydrothieno[2,3-d]pyrimidin-5-yl)acetamide] | 98.5 | 100 | 6.30 to 7.30 | 95.7 | 100 | –
17 | Cc1sc2c(c1CC(=O)Nc1nc(-c3ccc(F)c(C(F)(F)F)c3)cs1)c(=O)n(C)c(=O)n2C [Example 23, N-{4-[4-Fluoro-3-(trifluoromethyl)phenyl]-1,3-thiazol-2-yl}-2-(1,3,6-trimethyl-2,4-dioxo-1,2,3,4-tetrahydrothieno[2,3-d]pyrimidin-5-yl)acetamide] | 97.7 | 99 | > 7.30 | 100 | 99.7 | 6.30 to 7.30
18 | CCCc1sc2c(c1CC(=O)Nc1nc(-c3cc(F)c(OC(F)F)c(F)c3)cs1)c(=O)n(C)c(=O)n2C [Example 36, N-{4-[4-Difluoromethoxy-3,5-difluorophenyl]-1,3-thiazol-2-yl}-2-(1,3-dimethyl-2,4-dioxo-6-propyl-1,2,3,4-tetrahydrothieno[2,3-d]pyrimidin-5-yl) acetamide] | 98.9 | 99.8 | > 7.30 | 99.1 | 99.5 | 6.30 to 7.30
